Patent US20050065136A1, “Methods and compositions for the treatment of infertility using dilute hormone solutions” (priority 2003, published 2005)

Experiments:
Format in all cases: in vivo, human
[1] = Clinical responses of hormone allergy symptoms to intradermal administration of progesterone; settings: dilute doses, sublingually or intradermally
Procedure: Patients experiencing several hormone allergy symptoms experienced relief when administered dilute doses of progesterone either sublingually or intradermally. […] The symptoms measured were irritation or pain in the neck, nose, eyes, throat, ear, skin, back, hips, upper extremities and lower extremities, headache, and shortness of breath. The patients were administered 0.5 mg of progesterone intradermally. Patients were designated as responding patients in Table 2 if they experienced any relief of the indicated symptom. Patients were also asked to estimate the amount of improvement in the symptom, an average of which is indicated as the % improvement in responding patients. In Table 3 the probability that positive results (i.e. patients responding to treatment) were due to random effects was calculated using standard statistical analysis of patient tests. It was assumed that if the treatment has no effect, there is a 50% chance that a patient will indicate a positive response and a 50% chance that a patient will indicate a negative response. From this assumption, coupled with the actual data, one may calculate the probability that positive responses are due to an actual effect of the treatment and not simply random effects. In general, results with a less than 1% chance of being random are considered highly significant. […]

[2] = Symptom relief on a 0 to 10 scale in women with acute asthma after intradermal progesterone
Procedure: To test this hypothesis, 142 women with acute asthma were asked to evaluate the severity of their symptoms using an eleven point scale. Ten was assigned to the most severe symptoms, while 0 was assigned to an absence of symptoms. Immediately after assessing their symptoms on this scale, patents were administered 0.5 mg of progesterone by intradermal injection. Approximately 15 to 30 seconds after the injection was administered, each patient was asked if her symptoms were worse, better, or unchanged. Each patient was also asked to rate her present symptoms on the same 0 to 10 scale. […] Of the 142 patients tested 129 (91%) positively responded to the treatment. Using the random effects calculations described in Example 3, this correlates to a less than 0.1% chance that the results are random. Thus the results may be considered highly significant.

[3] = Relief of symptoms with intradermal estrogen in patients not relieved by progesterone; settings: 0.4 mg intradermally; many patients whose symptoms are not relieved using progesterone
[4] = 0.5 mg intradermal injection, 142 women with acute asthma, 15 to 30 seconds after injection

Compound: CC(=O)[C@H]1CC[C@H]2[C@@H]3CCC4=CC(=O)CC[C@]4(C)[C@H]3CC[C@]12C [Progesterone]
- effectiveness in producing symptom relief as compared to several other antigens [1]: most effective
- speed of relief ([1]; in most patients): very quickly
- average symptomatic relief for those who reported some response ([2]; 0 to 10 scale, responders only): 5 points
- average symptomatic relief for all patients ([2]; 0 to 10 scale, responding and not responding patients): 3.4 points
- % of patients reporting 100% relief of asthma symptoms ([2]; 0.5 mg intradermal injection): 28%
- average reduction in symptoms relative to the maximum individual patient score ([2]; 0.5 mg intradermal injection): 62%
- % of patients positively responding to the treatment [2, 4]: 91%
- number of patients positively responding to the treatment [2, 4]: 129
- number of patients reporting 100% relief of asthma symptoms ([2]; 0.5 mg intradermal injection, of the 129 patients with symptom relief): 40

Compound: estrogen
- relief of symptoms [3]: experience relief
